Legend:
hNaV1.2 (SCN2A) = molecular target: T1, hNaV1.2 (SCN2A) (Homo sapiens, UniProt Q99250); experiment: Use-dependent inhibition of the CNS Nav1.2 sodium channel; assay type: cell-based; conditions: use-dependent block, 25 Hz, pulse 20, read-out: Nav1.2 UDB 25 Hz 10 uM
T1 construct: expressed in transfected cells
Method: HEK-293 cells stably expressing wild-type (WT) hNaV1.2 (SCN2A NCBI # NM_021007.2, SCN1B NCBI # NM_001037.4, SCN2B NCBI # NM_004588.2) were used to record INa. Cells are maintained with standard tissue culture procedures and stable channel expression is maintained with 800 ug/mL G418 and 3 ug/mL Puromycin in the culture medium. Unless otherwise noted, all reagents are purchased from Sigma-Aldrich (St Louis, Mo., U.S.A.).
Assays measuring Use-Dependent Block (UDB) of Nav1.2 are performed on an automated electrophysiology platform, QPatch 16X or QPatch HT (Sophion Bioscience, Copenhagen, Denmark), using the whole cell patch clamp technique to measure currents through the cell membrane. Series resistance compensation is set to 100% and series resistance and whole-cell compensation are performed automatically. Currents stored in the Sophion Bioscience Oracle database (Sophion Bioscience, Copenhagen, Denmark). Analysis is performed using QPatch Assay software and data are compiled in Excel 2010 (Microsoft, Seattle, Wash., U.S.A.).
The internal (pipette) solution consists of (in mM) 105 CsF, 10 NaF, 20 CsCl, 2 EGTA, 10 HEPES, 10 Dextrose with a pH of 7.35 and osmolarity of 300 mOsmol/kg. The external (bath) solution contains in (mM): 145 NaCl, 4 KCl, 1.8 CaCl2, 1 MgCl2, 10 dextrose, 10 HEPES, with a pH of 7.35 and osmolarity of 310 mOsmol/kg. Experiments are carried out at 23-25° C.
Compound stocks are routinely made by the Gilead Sample Bank in vials to 10 mM in dimethyl sulfoxide (DMSO). In some cases, when compounds are not soluble in DMSO, they are made in 100% ethanol. Stocks are sonicated as necessary. […]
Cells are allowed to stabilize for 10 min after establishment of the whole-cell configuration before current is measured. The test compound is applied 2 times at 60 second intervals. After the second compound addition, a 200 second wait period was imposed to allow for equilibration. Leak currents are subtracted by using an online P/4 procedure and all currents are low-pass Bessel filtered at 5 kHz and digitized at […].
Results are presented as mean percentage inhibition.
Use-dependent block of Nav1.2 peak current is measured during pulse number 20 of a voltage pulse train (0 mV, 20 ms, 20 pulses, 25 Hz) from a holding potential of −120 mV.
Currents are normalized to the peak current recorded in response to the first pulse in each frequency train. The voltage protocol for UDB was performed in the absence and presence of compound and percentage inhibition was calculated with respect to the compound free condition.

[1] = molecular target: wild-type human cardiac sodium channel, hNav1.5 (Homo sapiens, UniProt Q14524); experiment: Late INa screening assay (QPatch whole cell patch clamp, Tefluthrin-induced late current); assay type: cell-based; conditions: HEK293 hNav1.5, percent block of late INa
Procedure, shortened: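 HEK293 cells stably expressing hNav1.5 without beta subunits were whole-cell patch clamped at 23-25 °C, stepping from −120 to −20 mV for 250 ms at 0.1 Hz. Late current (240–265 ms) was induced with 10 μM Tefluthrin, and compounds were added typically at 0.3 or 1 μM. Percent block was taken against 0 Na baseline with rundown correction.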

T1 sequence (Q99250 whole entry): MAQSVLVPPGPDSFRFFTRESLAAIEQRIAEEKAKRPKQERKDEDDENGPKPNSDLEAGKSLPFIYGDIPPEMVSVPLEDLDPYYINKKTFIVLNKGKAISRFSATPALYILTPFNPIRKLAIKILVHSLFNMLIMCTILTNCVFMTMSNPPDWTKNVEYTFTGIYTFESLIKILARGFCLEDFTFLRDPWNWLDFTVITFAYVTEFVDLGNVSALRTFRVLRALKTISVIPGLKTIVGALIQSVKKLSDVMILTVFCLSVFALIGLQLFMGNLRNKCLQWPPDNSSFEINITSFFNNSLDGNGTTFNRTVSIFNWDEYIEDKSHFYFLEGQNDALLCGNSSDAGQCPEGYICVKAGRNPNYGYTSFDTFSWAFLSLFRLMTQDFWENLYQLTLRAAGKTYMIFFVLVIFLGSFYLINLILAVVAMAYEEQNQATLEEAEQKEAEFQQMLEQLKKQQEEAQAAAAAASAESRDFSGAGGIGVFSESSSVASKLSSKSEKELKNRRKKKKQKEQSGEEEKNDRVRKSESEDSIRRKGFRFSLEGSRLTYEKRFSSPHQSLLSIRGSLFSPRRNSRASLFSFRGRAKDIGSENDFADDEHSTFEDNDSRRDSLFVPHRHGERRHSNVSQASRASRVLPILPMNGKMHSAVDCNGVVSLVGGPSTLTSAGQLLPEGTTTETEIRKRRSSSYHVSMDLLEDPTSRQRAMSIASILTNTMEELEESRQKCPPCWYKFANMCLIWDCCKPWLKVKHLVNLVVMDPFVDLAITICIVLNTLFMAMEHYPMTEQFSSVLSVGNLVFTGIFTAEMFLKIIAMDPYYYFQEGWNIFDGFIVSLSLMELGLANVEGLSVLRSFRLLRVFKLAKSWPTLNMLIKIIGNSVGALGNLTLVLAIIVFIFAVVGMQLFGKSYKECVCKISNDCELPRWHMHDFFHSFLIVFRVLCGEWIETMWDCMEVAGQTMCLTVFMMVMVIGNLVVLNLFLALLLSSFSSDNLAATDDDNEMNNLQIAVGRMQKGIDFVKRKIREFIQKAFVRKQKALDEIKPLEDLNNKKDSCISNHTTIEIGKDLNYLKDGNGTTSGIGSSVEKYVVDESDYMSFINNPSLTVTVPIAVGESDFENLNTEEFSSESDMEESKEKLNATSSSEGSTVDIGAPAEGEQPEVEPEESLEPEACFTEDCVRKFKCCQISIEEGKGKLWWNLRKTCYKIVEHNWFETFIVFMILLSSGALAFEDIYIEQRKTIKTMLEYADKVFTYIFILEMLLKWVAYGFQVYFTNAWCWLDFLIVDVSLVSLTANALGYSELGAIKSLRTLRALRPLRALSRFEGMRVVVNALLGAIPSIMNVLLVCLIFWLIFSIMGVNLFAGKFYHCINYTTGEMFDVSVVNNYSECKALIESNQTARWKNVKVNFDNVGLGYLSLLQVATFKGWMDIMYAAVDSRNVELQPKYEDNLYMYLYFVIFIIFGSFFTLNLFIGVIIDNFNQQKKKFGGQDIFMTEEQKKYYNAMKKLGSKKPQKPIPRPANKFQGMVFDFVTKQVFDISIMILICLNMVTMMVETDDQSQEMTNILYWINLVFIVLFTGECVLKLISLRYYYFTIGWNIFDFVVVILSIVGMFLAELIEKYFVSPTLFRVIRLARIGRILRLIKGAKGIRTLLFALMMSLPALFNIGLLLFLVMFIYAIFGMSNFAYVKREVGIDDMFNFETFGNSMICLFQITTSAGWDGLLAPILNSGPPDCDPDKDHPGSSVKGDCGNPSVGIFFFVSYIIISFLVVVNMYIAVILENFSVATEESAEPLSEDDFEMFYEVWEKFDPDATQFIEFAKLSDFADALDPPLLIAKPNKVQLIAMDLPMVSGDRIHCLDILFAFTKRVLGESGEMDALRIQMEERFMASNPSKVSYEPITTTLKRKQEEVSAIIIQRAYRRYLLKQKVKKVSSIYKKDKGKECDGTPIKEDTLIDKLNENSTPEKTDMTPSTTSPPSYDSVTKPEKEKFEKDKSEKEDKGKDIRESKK
T1 sequence (Q07699 19-218 partner): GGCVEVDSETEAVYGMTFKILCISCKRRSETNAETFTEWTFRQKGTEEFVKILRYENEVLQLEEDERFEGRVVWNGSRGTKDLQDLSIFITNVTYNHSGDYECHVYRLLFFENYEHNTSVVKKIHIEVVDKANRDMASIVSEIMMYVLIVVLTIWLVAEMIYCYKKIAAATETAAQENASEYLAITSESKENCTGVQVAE
T1 sequence (O60939 30-215 partner): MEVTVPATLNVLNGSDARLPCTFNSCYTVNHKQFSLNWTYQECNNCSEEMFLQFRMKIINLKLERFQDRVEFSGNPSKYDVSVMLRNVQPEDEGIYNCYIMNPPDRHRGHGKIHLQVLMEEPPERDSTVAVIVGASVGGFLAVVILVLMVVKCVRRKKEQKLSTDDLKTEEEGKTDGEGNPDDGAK
Chain of wild-type human cardiac sodium channel, hNav1.5 (Q14524 whole entry): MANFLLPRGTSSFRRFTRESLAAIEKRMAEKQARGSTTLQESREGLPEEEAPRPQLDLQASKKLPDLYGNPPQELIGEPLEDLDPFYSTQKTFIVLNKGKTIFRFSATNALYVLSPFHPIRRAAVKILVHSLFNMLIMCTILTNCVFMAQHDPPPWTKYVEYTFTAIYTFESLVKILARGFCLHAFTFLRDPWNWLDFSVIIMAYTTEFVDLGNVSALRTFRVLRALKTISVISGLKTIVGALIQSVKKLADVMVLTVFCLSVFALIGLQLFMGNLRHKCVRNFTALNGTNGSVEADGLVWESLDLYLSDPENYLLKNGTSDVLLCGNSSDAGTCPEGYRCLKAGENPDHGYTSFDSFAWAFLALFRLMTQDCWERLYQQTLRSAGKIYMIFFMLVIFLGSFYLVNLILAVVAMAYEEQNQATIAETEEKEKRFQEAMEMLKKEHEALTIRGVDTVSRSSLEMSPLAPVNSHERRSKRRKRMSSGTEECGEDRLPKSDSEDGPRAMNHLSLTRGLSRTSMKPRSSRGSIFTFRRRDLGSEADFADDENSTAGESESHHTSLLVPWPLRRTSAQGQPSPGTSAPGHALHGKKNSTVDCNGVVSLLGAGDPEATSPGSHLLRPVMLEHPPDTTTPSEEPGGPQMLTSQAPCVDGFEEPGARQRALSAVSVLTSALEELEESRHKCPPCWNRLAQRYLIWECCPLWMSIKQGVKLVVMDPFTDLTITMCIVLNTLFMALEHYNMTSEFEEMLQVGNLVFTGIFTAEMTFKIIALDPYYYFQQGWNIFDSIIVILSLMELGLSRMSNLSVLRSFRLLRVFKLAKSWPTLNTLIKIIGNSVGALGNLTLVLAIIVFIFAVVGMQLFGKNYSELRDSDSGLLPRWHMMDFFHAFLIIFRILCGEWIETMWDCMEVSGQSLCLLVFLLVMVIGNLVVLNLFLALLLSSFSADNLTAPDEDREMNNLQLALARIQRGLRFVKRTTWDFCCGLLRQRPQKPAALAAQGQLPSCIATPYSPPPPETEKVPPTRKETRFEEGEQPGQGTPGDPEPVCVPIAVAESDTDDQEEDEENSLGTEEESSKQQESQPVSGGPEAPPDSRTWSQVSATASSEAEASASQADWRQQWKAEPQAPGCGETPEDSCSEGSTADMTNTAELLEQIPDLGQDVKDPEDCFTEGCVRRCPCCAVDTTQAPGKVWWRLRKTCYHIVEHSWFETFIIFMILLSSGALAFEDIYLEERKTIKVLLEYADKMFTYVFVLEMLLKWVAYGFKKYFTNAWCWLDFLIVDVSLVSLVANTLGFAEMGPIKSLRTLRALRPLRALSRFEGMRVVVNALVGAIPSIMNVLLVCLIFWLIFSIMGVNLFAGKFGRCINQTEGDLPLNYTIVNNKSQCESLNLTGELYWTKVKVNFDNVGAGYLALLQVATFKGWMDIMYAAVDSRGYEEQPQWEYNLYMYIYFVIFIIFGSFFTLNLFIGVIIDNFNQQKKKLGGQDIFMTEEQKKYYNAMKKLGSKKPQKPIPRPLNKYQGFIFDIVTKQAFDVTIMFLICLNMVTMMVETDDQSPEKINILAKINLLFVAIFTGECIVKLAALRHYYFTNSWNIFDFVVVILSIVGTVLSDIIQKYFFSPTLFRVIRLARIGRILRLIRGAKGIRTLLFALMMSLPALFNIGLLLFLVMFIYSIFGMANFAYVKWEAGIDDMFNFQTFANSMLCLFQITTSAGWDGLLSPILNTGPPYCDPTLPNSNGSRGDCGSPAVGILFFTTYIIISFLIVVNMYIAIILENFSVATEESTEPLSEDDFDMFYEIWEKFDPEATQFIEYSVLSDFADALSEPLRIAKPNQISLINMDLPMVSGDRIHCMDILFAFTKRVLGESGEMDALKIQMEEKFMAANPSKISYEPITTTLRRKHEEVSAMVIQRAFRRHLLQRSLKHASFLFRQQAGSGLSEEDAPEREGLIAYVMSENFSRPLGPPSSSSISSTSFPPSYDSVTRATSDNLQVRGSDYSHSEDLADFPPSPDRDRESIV

| Compound | inhibition at 10 µM (hNaV1.2 (SCN2A)) | inhibition at 0.3 µM [1] | inhibition at 1 µM [1] |
| --- | --- | --- | --- |
| Cc1cnc(COc2noc3ccc(-c4ccc(OC(F)(F)F)cc4)cc23)cn1 [Example 73, 3-((5-methylpyrazin-2-yl)methoxy)-5-(4-(trifluoromethoxy)phenyl)benzo[d]isoxazole] | < 5% | 20.4% | 66.2% |
| Cc1cc(-c2ccc(OC(F)(F)F)cc2)cc2c(OCc3nnc(C4CC4)o3)noc12 [Example 105, 3-((5-cyclopropyl-1,3,4-oxadiazol-2-yl)methoxy)-7-methyl-5-(4-(trifluoromethoxy)phenyl)benzo[d]isoxazole] | 70.9% | – | 53.7% |
| Nc1noc2ccc(-c3ccc(OC(F)(F)F)cc3)cc12 [Example 147, 5-(4-(trifluoromethoxy)phenyl)benzo[d]isoxazol-3-amine] | 20.4% | – | 45.4% |
| FC(F)(F)Oc1ccc(-c2ccc3onc(OCc4ncco4)c3c2)cc1 [Example 53, 3-(oxazol-2-ylmethoxy)-5-(4-(trifluoromethoxy)phenyl)benzo[d]isoxazole] | < 5% | 31.1% | 57% |
| O=C1OCCN1CCOc1noc2ccc(-c3ccc(OC(F)(F)F)cc3)cc12 [Example 75, 3-(2-((5-(4-(trifluoromethoxy)phenyl)benzo[d]isoxazol-3-yl)oxy)ethyl)oxazolidin-2-one] | 27.1% | 29.3% | 59.5% |
| FC(F)(F)Oc1ccc(-c2ccc3onc(OCc4cnccn4)c3c2)cc1 [Example 151, 3-(pyrazin-2-ylmethoxy)-5-(4-(trifluoromethoxy)phenyl)benzo[d]isoxazole] | 18.6% | 50.7% | 70.1% |
| Cc1nnc(COc2noc3ccc(-c4ccc(OC(F)(F)F)cc4)cc23)o1 [Example 99, 3-((5-methyl-1,3,4-oxadiazol-2-yl)methoxy)-5-(4-(trifluoromethoxy)phenyl)benzo[d]isoxazole] | 50.5% | 42.3% | 72.3% |
| FC(F)(F)Oc1ccc(-c2ccc3onc(-n4cncn4)c3c2)cc1 [Example 136, 3-(1H-1,2,4-triazol-1-yl)-5-(4-(trifluoromethoxy)phenyl)benzo[d]isoxazole] | < 5% | – | 44.8% |
| COCCOc1noc2ccc(-c3ccc(OC(F)(F)F)cc3)cc12 [Example 60, 3-(2-methoxyethoxy)-5-(4-(trifluoromethoxy)phenyl)benzo[d]isoxazole] | < 5% | 16.8% | 57.2% |
| Cc1cc2onc(OCc3ncccn3)c2cc1-c1ccc(C(F)(F)F)cc1F [Example 28, 5-(2-fluoro-4-(trifluoromethyl)phenyl)-6-methyl-3-(pyrimidin-2-ylmethoxy)benzo[d]isoxazole] | < 5% | 26.7% | 54.4% |
| CC(C)NC(=O)COc1noc2ccc(-c3ccc(OC(F)(F)F)cc3)cc12 [Example 122, N-isopropyl-2-((5-(4-(trifluoromethoxy)phenyl)benzo[d]isoxazol-3-yl)oxy)acetamide] | 29.7% | – | 41.3% |
| FC(F)(F)Oc1ccc(-c2ccc3onc(OCC4CCO4)c3c2)cc1 (stereo not drawn) [Example 42, 3-(oxetan-2-ylmethoxy)-5-(4-(trifluoromethoxy)phenyl)benzo[d]isoxazole] | < 5% | 17.5% | 57.3% |
| FC(F)(F)Oc1ccc(-c2ccc3onc(-n4ccnc4)c3c2)cc1 [Example 132, 3-(1H-imidazol-1-yl)-5-(4-(trifluoromethoxy)phenyl)benzo[d]isoxazole] | < 5% | – | 40.5% |
| COc1ccnc(CNc2noc3ccc(-c4ccc(OC(F)(F)F)cc4)cc23)n1 [Example 149, N-((4-methoxypyrimidin-2-yl)methyl)-5-(4-(trifluoromethoxy)phenyl)benzo[d]isoxazol-3-amine] | 44.4% | 50.9% | 87.6% |
| O=C1CCCN1CCOc1noc2ccc(-c3ccc(OC(F)(F)F)cc3)cc12 [Example 59, 1-(2-((5-(4-(trifluoromethoxy)phenyl)benzo[d]isoxazol-3-yl)oxy)ethyl)pyrrolidin-2-one] | 37.4% | 43.7% | 60.4% |
| CC(C)(C)OC(=O)COc1noc2ccc(-c3ccc(OC(F)(F)F)cc3)cc12 [Example 157, tert-butyl 2-((5-(4-(trifluoromethoxy)phenyl)benzo[d]isoxazol-3-yl)oxy)acetate] | < 5% | – | 36.9% |
| FC(F)(F)Oc1ccc(-c2ccc3onc(NCC4CC4)c3c2)cc1 [Example 128, N-(cyclopropylmethyl)-5-(4-(trifluoromethoxy)phenyl)benzo[d]isoxazol-3-amine] | < 5% | – | 42% |
| CN1CCC[C@H]1COc1noc2ccc(-c3ccc(OC(F)(F)F)cc3)cc12 [Example 71, (S)-3-((1-methylpyrrolidin-2-yl)methoxy)-5-(4-(trifluoromethoxy)phenyl)benzo[d]isoxazole] | 89.6% | 41.7% | 81.5% |
| Cc1nnc(COc2noc3c(F)cc(-c4ccc(OC(F)(F)F)cc4)cc23)o1 [Example 155, 7-fluoro-3-((5-methyl-1,3,4-oxadiazol-2-yl)methoxy)-5-(4-(trifluoromethoxy)phenyl)benzo[d]isoxazole] | 58.6% | 47% | 69.2% |
| Fc1cc(-c2ccc3onc(OCc4ncccn4)c3c2)ccc1Cl [Example 8, 5-(4-chloro-3-fluorophenyl)-3-(pyrimidin-2-ylmethoxy)benzo[d]isoxazole] | < 5% | – | 52.6% |
| FC(F)(F)Oc1ccc(-c2ccc3onc(-n4cnc(Cl)c4)c3c2)cc1 [Example 140, 3-(4-chloro-1H-imidazol-1-yl)-5-(4-(trifluoromethoxy)phenyl)benzo[d]isoxazole] | < 5% | – | 37.6% |
| COc1cc(OC(F)(F)F)ccc1-c1ccc2onc(OCc3ncccn3)c2c1 [Example 4, 5-(2-methoxy-4-(trifluoromethoxy)phenyl)-3-(pyrimidin-2-ylmethoxy)benzo[d]isoxazole] | 13.9% | 29.7% | 62.9% |
| COc1cc2onc(OCc3ncccn3)c2cc1-c1ccc(Cl)c(F)c1 [Example 13, 5-(4-chloro-3-fluorophenyl)-6-methoxy-3-(pyrimidin-2-ylmethoxy)benzo[d]isoxazole] | 5.6% | – | 35.1% |
| CC(C)c1nccn1-c1noc2ccc(-c3ccc(OC(F)(F)F)cc3)cc12 [Example 144, 3-(2-isopropyl-1H-imidazol-1-yl)-5-(4-(trifluoromethoxy)phenyl)benzo[d]isoxazole] | 75.8% | 25.9% | 55.7% |
| CCn1ccnc1COc1noc2ccc(-c3ccc(OC(F)(F)F)cc3)cc12 [Example 47, 3-((1-ethyl-1H-imidazol-2-yl)methoxy)-5-(4-(trifluoromethoxy)phenyl)benzo[d]isoxazole] | 31.5% | 20% | 60.2% |
| FC(F)(F)Oc1ccc(-c2ccc3onc(OCc4nnc(C5CC5)s4)c3c2)cc1 [Example 154, 3-((5-cyclopropyl-1,3,4-thiadiazol-2-yl)methoxy)-5-(4-(trifluoromethoxy)phenyl)benzo[d]isoxazole] | 27% | – | 39.2% |
| FC(F)(F)Oc1ccc(-c2ccc3onc(NCc4ncccn4)c3c2)cc1 [Example 126, N-(pyrimidin-2-ylmethyl)-5-(4-(trifluoromethoxy)phenyl)benzo[d]isoxazol-3-amine] | < 5% | – | 50% |
